Source: patent US9526762B1, “Multidomain peptides for promoting angiogenesis” (WILLIAM MARSH RICE UNIVERSITY, priority 2013, dated 2016)

T1: MMP-2 (Homo sapiens, UniProt P08253)
T1 sequence (P08253 110-660): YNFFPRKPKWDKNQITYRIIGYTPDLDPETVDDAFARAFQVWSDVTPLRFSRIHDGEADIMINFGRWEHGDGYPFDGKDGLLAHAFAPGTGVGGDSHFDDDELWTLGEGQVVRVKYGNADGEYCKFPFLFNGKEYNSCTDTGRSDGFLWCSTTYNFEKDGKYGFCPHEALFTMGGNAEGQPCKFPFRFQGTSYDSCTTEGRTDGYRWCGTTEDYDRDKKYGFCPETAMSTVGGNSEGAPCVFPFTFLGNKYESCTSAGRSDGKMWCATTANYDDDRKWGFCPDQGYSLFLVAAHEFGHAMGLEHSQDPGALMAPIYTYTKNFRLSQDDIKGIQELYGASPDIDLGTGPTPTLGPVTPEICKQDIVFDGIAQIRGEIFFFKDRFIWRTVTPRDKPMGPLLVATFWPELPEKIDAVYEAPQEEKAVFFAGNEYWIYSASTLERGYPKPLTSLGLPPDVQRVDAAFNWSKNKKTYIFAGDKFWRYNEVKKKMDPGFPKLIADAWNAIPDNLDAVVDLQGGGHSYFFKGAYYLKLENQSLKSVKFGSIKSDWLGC

T2: angiogenic peptide SLanc: K-(SL)3(RG)(SL)3-K-G-KLTWQELYQLKYKGI
T2 chain: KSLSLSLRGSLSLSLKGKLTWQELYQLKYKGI


Columns and labels:
HUVEC = test: Scratch wound healing assay; assay type: cell-based, human; conditions: 1 μM soluble peptide, low FBS (0.5%) media, 18 hr
Protocol: HUVEC were seeded in a 12-well plate (25,000 per well) and grown to confluence (n=6). A scratch wound was made in each of the wells with a 1 mL pipet tip. Cell surfaces were then washed with HBSS. Cell culture media with 0.5% FBS and 1 μM peptides (SLanc, SLac, PBS) alone was added on top of cells, n=6. Surfaces were imaged immediately. Cells were then incubated at 37° C. for 18 h imaged again in the same location. NIH Image J was used to measure the infiltration distance by migrating HUVEC.

THP-1 cells = test: Immunogenicity with THP-1 cells atop scaffolds (ELISA); assay type: cell-based; conditions: ELISA at 24 hr
Protocol: 200 μL gels were cast in 24 well plates. Rat tail tendon (RTT), Puramatrix™ (Pura) and Matrigel™ were used as gel controls, and TCP with macrophages differentiated to M1 (20 ng/mL IFN-γ+LPS) and M2 (20 ng/mL IL-4) phenotype were used as cell controls. THP-1 cells in suspension were suspended in media and incubated at a concentration of 1M cells/well atop scaffolds. Media aliquots were assayed for inflammatory (IL-1β, TNF-α), and anti-inflammatory (IL-10) at 24 hr using ELISA (Biolegend, Calif.).

Wistar rats = test: Subcutaneous implants in rats, histologic and angiogenic evaluation; assay type: in vivo; conditions: rat
Protocol: Female Wisar rats (225-250 g, Charles River Labs, Wilmington, Mass.) were anesthetized using isofluorane (2% for induction and 1% for maintenance), dorsal aspect shaved and sterilely prepped. Hydrogel scaffolds of each SL, SLc, SLac, SLanc or controls: Pura, VEGF (1 μg/mL) were made were loaded in syringes with 22 gage needles. 200 μL subcutaneous injections were injected in 4 different 1.5 inch spaced randomized sites on the dorsal aspect, on either side between the lower thoracic and upper lumber vertebrae. At prescribed timepoints 3 day, 1 week, 2 weeks and […] rats were euthanized using an overdose of isoflurane, CO2 asphyxiation, and bilateral thoracic puncture. The dorsal skin was removed around the entire implant, washed with PBS, and fixed in neutral buffered formalin for 24 hr prior to processing.
Tissue was processed to paraffin blocks, sectioned at 7 μm, deparraffinized and stained for cellular infiltrate using H&E. Cellular infiltrate was determined using immunostaining Mural cell staining associated with angiogenesis was determined by staining for endothelial cells: goat anti-rat CD31+ (Santa Cruz Biotechnology), mouse anti-rat vWF (ABCam); smooth muscle cells: rabbit anti-rat α-SMA+ (Dako); pericytes: mouse anti-rat Nestin+ (Millipore); hematopoitic stem cells: mouse anti-rat CD45 (Santa Cruz Biotechnology), and nucleic DAPI counterstain. Secondary antibodies used were goat anti-rabbit AF 488, donkey anti-goat AF 488, anti-goat AF 488 (Life Technologies), donkey Streptavidin AF 647 (Life Technologies), goat anti-mouse AF 647 and donkey anti-rabbit AF 647. Angiogenesis was quantified by measuring the diameter of vessels (small axis for non-circular vessels), density of vessels (vessels per unit area), presence and thickness of vessel wall (graded from 1 to 3: 1—non-contiguous vessel wall, 2: contiguous thin vessel wall, 3: contiguous multicell thick vessel wall) (n=4 separate sections, n=4 samples).
In modeled diseases such as ligated femoral artery ischemic limb wounds or myocardial infarction several host tissue responses are activated. From secretion of mediators of inflammation such as MCP-1, IL-4, IL-10, SDF-1 and GCSF to growth factors such as VEGF, FGF and EGF extrinsic factors can drastically influence performance of novel materials. As such, prior to use in a disease model, evaluation of scaffolds without concomitant influence from native immune responses was critical. 200 μL subcutaneous implants were randomly made in the dorsal aspect of Wistar rats between the cervical and lumbar vertebrae and 1-2 cm lateral to the midline. 1 w % scaffolds were prepared aseptically by crosslinking 2 w % peptide with an equal volume of HBSS, and injected via 21 gage needle below the skin. At 3 day, 1 week, 2 week and 3 week timepoints, rats were euthanized and scaffolds with surrounding tissue and skin removed. Scaffolds were trimmed, fixed in formalin, embedded in paraffin, sectioned and (immuno-) stained. […] These scaffolds seemed to have completely diffused away or degraded 3 days post-implant. […] Development of blood vessels is dependent on the stimuli the host and scaffold provides. VEGF loaded scaffolds presented 100 ng of recombinant protein (13 nM) within scaffolds. […] These cells of immune, hematopeotic and mesenchymal origin provide a niche for reconstitution of scaffolds. Coupled with recruitment and growth of endothelial feeders from existing vessels, we posit that pericytic cells enhance stability of growing vessels in a paracrine fashion providing adequate support for generation of arterioles.

[1] = system: human mesenchymal stem cells (hMSCs); test: hMSC adhesion on hydrogel scaffolds; assay type: cell-based; conditions: 2000 hMSC per gel, 5 days at 37° C., nuclei counted
Protocol: SLanc, SLac, SL, and RTT hydrogels (50 μL) were cast in 16-well chamber slides (n=6). hMSC (2000 on each gel) were seeded, and compared to TCP surfaces. Cells were incubated for 5 days at 37° C. Actin filaments were stained with Alexafluor Phalloidin 488 (Life Technologies) and DAPI (Life Technologies). Cell morphology was noted and nuclei counted to quantify proliferation.

MMP-2 = target: T1, MMP-2; test: In vitro degradation of SLanc with MMP-2 (MALDI-MS); assay type: biochemical; conditions: in vitro incubation with MMP-2, MALDI-MS
Text: Chemical moieties introduced into the peptide sequence can tailor the host response to materials. In the design of SLanc, an MMP-2 cleavage sequence was introduced into the central peptide backbone. This sequence can be cleaved specifically with MMP-2, which is secreted by a host of infiltrating cells ranging from macrophages to fibroblasts. […] Additional functionality was afforded to SLanc to enhance angiogenesis by addition of QK derived from VEGF-165.

[2] = target: T2, angiogenic peptide SLanc: …

| Molecule | migration of HUVEC into scratch wound (HUVEC) | IL-1β secretion by THP-1 cells (THP-1 cells) | TNF-α secretion by THP-1 cells (THP-1 cells) | cellular infiltration of scaffold (H&E) (Wistar rats; 200 μL subcutaneous injection, 1 w % scaffold) | fibrous capsule around implant (Wistar rats; subcutaneous implant) | perfusion of neovessels (CD45 / vWF immunostaining) (Wistar rats; subcutaneous implant) | time to development of angiogenic networks (Wistar rats; subcutaneous implant) | time to resorption of vessels and implants (Wistar rats; subcutaneous implant) | time to stable vessels (Wistar rats; subcutaneous implant) | vessels in scaffold at 3 day (Wistar rats; subcutaneous implant, 3 day) | vessel maturity by immunostaining at 7 day and 2 weeks (Wistar rats; subcutaneous implant, 7 day and 2 weeks) | hemangiomas or hemorrhaging (Wistar rats; subcutaneous implant, up to 3 weeks) | macro-scale vessels visible upon explant (Wistar rats; subcutaneous implant, compared to SLc or SLc+VEGF scaffolds) | hMSC adhesion to scaffold [1] | degradation by MMP-2 (MMP-2) | enzymatic cleavage of the peptide, MALDI mass spectrometry of fragments [2] |
| --- | --- | --- | --- | --- | --- | --- | --- | --- | --- | --- | --- | --- | --- | --- | --- | --- |
| K-(SL)3-(RG)-(SL)3-K-(GRGDS) (KSLSLSLRGSLSLSLKGRGDS) [SLac, adhesion and cleavage peptide] | significantly higher proliferation than TCP | – | – | – | – | – | – | – | – | – | – | – | – | – | – | – |
| Ac-KSLSLSLRGSLSLSLKGKLTWQELYQLKYKGI-NH2 [SLanc, K-(SL)3(RG)(SL)3-K-G-KLTWQELYQLKYKGI] | significantly higher proliferation than TCP | significantly lower than LPS activated cells, with levels similar to commercially available scaffolds (Puramatrix™ and Matrigel™) | significantly lower than LPS activated cells, with levels similar to commercially available scaffolds (Puramatrix™ and Matrigel™) | significantly greater cellular population | lack of a fibrous capsule | CD45+ hematopoietic cells were noted within vWF+ vessels suggesting patent perfused mature neovessels | ≤ 3 days | ≤ 3 weeks | ≤ 7 days | small nascent vessels | mature Nestin+, α-SMA+, and CD31+ cells | without development of hemangiomas or hemorrhaging | visible macro-scale vessels | increased adhesion to SLanc over non-functionalized scaffolds | yields a variety of peptide fragments around the cleavage site | – |
| MMP-2 (protein) YNFFPRKPKWDKNQITYRIIGYTPDLDPETVDDAFARAFQVWSDVTPLRFSRIHDGEADIMINFGRWEHGDGYPFDGKDGLLAHAFAPGTGVGGDSHFDDDELWTLGEGQVVRVKYGNADGEYCKFPFLFNGKEYNSCTDTGRSDGFLWCSTTYNFEKDGKYGFCPHEALFTMGGNAEGQPCKFPFRFQGTSYDSCTTEGRTDGYRWCGTTEDYDRDKKYGFCPETAMSTVGGNSEGAPCVFPFTFLGNKYESCTSAGRSDGKMWCATTANYDDDRKWGFCPDQGYSLFLVAAHEFGHAMGLEHSQDPGALMAPIYTYTKNFRLSQDDIKGIQELYGASPDIDLGTGPTPTLGPVTPEICKQDIVFDGIAQIRGEIFFFKDRFIWRTVTPRDKPMGPLLVATFWPELPEKIDAVYEAPQEEKAVFFAGNEYWIYSASTLERGYPKPLTSLGLPPDVQRVDAAFNWSKNKKTYIFAGDKFWRYNEVKKKMDPGFPKLIADAWNAIPDNLDAVVDLQGGGHSYFFKGAYYLKLENQSLKSVKFGSIKSDWLGC | – | – | – | – | – | – | – | – | – | – | – | – | – | – | – | In vitro demonstration of physiological degradation of SLanc with the addition of MMP-2, yields a variety of peptide fragments around the cleavage site |
